Where a name gives a salt, the structure may show the parent alone.
Key:
[1] = Binding of hydrophilic drugs to NCC; type: physicochemical; settings: for final mass of drug bound to NCC for the release studies: 2.5 mg NCC, distilled water then 10 mM NaCl, DOX solution 325 μg/ml, TET solution 1000 μg/ml; for binding efficiency / maximum mass of drug bound to NCC: 2 mg NCC
Protocol: NCC Drug Binding Procedure: Doxorubicin hydrochloride (DOX) or tetracycline hydrochloride (TET), were dissolved in either 10 mM phosphate buffered saline (PBS) at pH 7.4, or dH2O with increasing drug concentrations ([drugadded]). Drug solutions (1.5 ml) were added to 0.5 ml of NCC suspension in a 2 ml microcentrifuge tube and incubated at 37° C. with tumbling shaking at 8 rpm for 30 minutes. Suspensions containing PBS or NaCl produced flocculated NCC/drug suspensions, which were centrifuged at 18000×g for 10 minutes to pellet the NCC and bound drug. The concentration of unbound drug in the supernatant ([drugunbound]) was assayed using a Varian 50 Bio UV Vis spectrophotometer (Varian, Inc., Mississauga, Ont.) using wavelengths of 482 nm and 364 nm for DOX and TET, respectively. The concentration of drug bound to the NCC ([drugbound]) was calculated using the following equation:
[drugbound]=[drugadded]−[drugunbound] (1)
In this case, the NCC/drug suspensions were transferred to dialysis bags with a molecular weight cut off of 10000 Da (Spectrum Laboratories, Inc., Rancho Dominguez, Calif.) and dialysed against distilled water overnight in the dark at 4° C. The concentration of unbound drug in the dialysate was determined by UV Vis spectroscopy, allowing for the calculation of the amount of drug bound to the NCC according to equation (1).

[2] = In vitro release of drugs from NCC in PBS; type: physicochemical; settings: 10 mM PBS, 37° C.
Protocol: (§1) Drug Release Procedure: DOX was bound to NCC for release studies by incubating a solution of 325 μg/ml of DOX in distilled water with a suspension containing 2.5 mg of NCC. In order to flocculate the NCC and allow for separation of the NCC/DOX nanocomplexes, NaCl was added to a final concentration of 10 mM. The suspension was centrifuged at 18000×g for 10 minutes to pellet the NCC/DOX and the drug binding was determined by UV Vis spectroscopy as described above. […] NCC/drug nanocomplexes with DTX, PTX and ETOP were prepared as described for the drug binding studies. The concentration of DTX and PTX that was incubated with the NCC suspension was 200 μg/ml and the concentration of ETOP was 100 μg/ml. […] The drug loaded NCC samples were resuspended in 1 ml of PBS followed by incubation at 37° C. with tumbling at 8 rpm. At predetermined times the suspensions were centrifuged at 18000×g for 10 minutes and the supernatant was removed for drug quantitation by UV Vis for DOX and TET or HPLC for DTX, PTX and ETOP, as previously described. At each sampling time point, fresh PBS was added to the tubes and the NCC/drug nanocomplexes were resuspended.

[3] = Binding of hydrophobic drugs to NCC/CTAB nanocomplexes; type: physicochemical; settings: for binding efficiency to NCC/CTAB nanocomplexes / saturation of binding: 12.9 mM CTAB, 2.5 mg NCC, 10 mM NaCl; for binding efficiency to NCC/CTAB nanocomplexes: 25° C., up to 100 μg of drug added; for final mass of drug bound to NCC/CTAB for the release studies: DTX and PTX incubated at 200 μg/ml, ETOP at 100 μg/ml
Protocol: In order to solubilize the hydrophobic drugs paclitaxel (PTX), docetaxel (DTX) and etoposide (ETOP), the surface of the NCC was first modified with CTAB. This was achieved by incubating increasing amounts of CTAB with 2.5 mg of NCC so the final CTAB concentration varied from 0 mM to 12.9 mM. An aliquot of 100 mM NaCl was added, resulting in a final NaCl concentration of 10 mM, which facilitated flocculation and subsequent separation of the NCC/CTAB nanocomplexes by centrifugation as described above. The NCC/CTAB was incubated with stock solutions of the drugs with increasing concentrations. Since these drugs are characterized by low aqueous solubility, they were solubilized in a minimal amount of either DMSO or diblock copolymer in 10 mM NaCl as previously described. The drug/NCC/CTAB suspensions were incubated at 25° C. with tumbling at 8 rpm for 30 minutes then centrifuged at 18000×g for 10 minutes to pellet the NCC/CTAB and bound drug. The amount of unbound drug in the supernatant was determined by HPLC using a Waters HPLC system with Millennium software and UV Vis detection. Separation was achieved using a Novapak™ C18 column with 20 μl injections and a mobile phase flow rate of 1 ml/min. The DTX and PTX mobile phase consisted of 58% acetonitrile, 37% dH2O and 5% methanol with detection at 232 nm. The mobile phase for ETOP was 27% acetonitrile, 1% acetic acid and 72% dH2O and detection was at 286 nm. Calibration curves were prepared for all drugs and were linear in the desired concentration range. The amount of drug bound to the NCC/CTAB was determined using equation (1).

[4] = In vitro release of drugs from NCC/CTAB nanocomplexes in PBS; type: physicochemical; settings: 12.9 mM CTAB, 10 mM PBS, 37° C.
Protocol: as §1

[5] = Retention of fluorescein bound to NCC/CTAB in aqueous media; type: physicochemical; settings: upon resuspension or dilution in aqueous media
KU-7 cells = assay: Cell binding and uptake of NCC/CTAB/fluorescein (fluorescence, confocal microscopy); type: cell-based
Protocol: FIGS. 10A, B, C and D are confocal micrographs of KU-7 cells incubated for 2 hours with NCC/CTAB/fluoroscein system with a fluorescein concentration of 0.25 mg/ml. (A) White light image of KU-7 cells. (B) Staining of the nuclei with DAPI. (C) Fluorescein in the cytoplasm. (D) An overlay of images B and C.

[6] = dispersion medium PBS 10 mM, pH 7.4
[7] = dispersion medium distilled water

COc1cccc2c1C(=O)c1c(O)c3c(c(O)c1C2=O)C[C@@](O)(C(=O)CO)C[C@@H]3O[C@H]1C[C@H](N)[C@H](O)[C@H](C)O1 [DOX, Doxorubicin hydrochloride]
final mass of drug bound to NCC for the release studies [1]: 212 ± 3.5 µg
binding efficiency [1, 6]: 65%
maximum mass of drug bound to NCC [1, 6]: 122 µg
binding efficiency [1, 7]: 83%
maximum mass of drug bound to NCC [1, 7]: 1667 µg
bound drug released in four hours [2]: ~85%
bound drug released by one day (plateau) [2]: 87%

COc1cc([C@@H]2c3cc4c(cc3[C@@H](O[C@@H]3O[C@@H]5CO[C@@H](C)O[C@H]5[C@H](O)[C@H]3O)[C@H]3COC(=O)[C@H]23)OCO4)cc(OC)c1O [ETOP, etoposide]
maximum mass of drug bound to NCC/CTAB ([3]; 100 μg of drug added): 48 µg
binding efficiency to NCC/CTAB nanocomplexes [3]: 48%
final mass of drug bound to NCC/CTAB for the release studies [3]: 63 ± 0.1 µg
total drug released over four days ([4]; four days): 75%

CC(=O)O[C@H]1C(=O)[C@@]2(C)[C@H]([C@H](OC(=O)c3ccccc3)[C@]3(O)C[C@H](OC(=O)[C@H](O)[C@@H](NC(=O)c4ccccc4)c4ccccc4)C(C)=C1C3(C)C)[C@]1(OC(C)=O)CO[C@@H]1C[C@@H]2O [PTX, paclitaxel]
saturation of binding [3]: approximately 200 μg
binding efficiency to NCC/CTAB nanocomplexes [3]: approximately 90%
final mass of drug bound to NCC/CTAB for the release studies [3]: 149 ± 4.8 µg
bound drug released within the first hour [4]: 20%
total bound drug released in two days [4]: 44%

O=C1OC2(c3ccc(O)cc3Oc3cc(O)ccc32)c2ccccc21 [fluorescein]
fluorescein remaining bound to NCC/CTAB [5]: More than 95%
time by which cellular uptake of fluorescein reached a maximum (KU-7 cells): ≤ 2 h

CC(=O)O[C@@]12CO[C@@H]1C[C@H](O)[C@@]1(C)C(=O)[C@H](O)C3=C(C)[C@@H](OC(=O)[C@H](O)[C@@H](NC(=O)OC(C)(C)C)c4ccccc4)C[C@@](O)([C@@H](OC(=O)c4ccccc4)[C@H]21)C3(C)C [DTX, docetaxel]
saturation of binding [3]: approximately 200 μg
binding efficiency to NCC/CTAB nanocomplexes [3]: approximately 90%
final mass of drug bound to NCC/CTAB for the release studies [3]: 184 ± 4.8 µg
bound drug released within the first hour [4]: Approximately 26%
total bound drug released in two days [4]: 59%

CN(C)[C@@H]1C(O)=C(C(N)=O)C(=O)[C@@]2(O)C(O)=C3C(=O)c4c(O)cccc4[C@@](C)(O)[C@H]3C[C@@H]12 [TET, tetracycline hydrochloride]
final mass of drug bound to NCC for the release studies [1]: 187 ± 2.0 µg
drug loading ([1]; almost 500 μg on 2 mg of NCC): 20 % w/w
mass of drug bound to NCC ([1]; bound to 2 mg of NCC (FIG. 2)): ~500 µg
binding efficiency [1, 6]: 25%
maximum mass of drug bound to NCC [1, 6]: 251 µg
binding efficiency [1, 7]: 48%
maximum mass of drug bound to NCC [1, 7]: 959 µg
bound drug released in four hours [2]: approximately 90%
bound drug released by one day (plateau) [2]: 93%
